Results from PMC6540907, “The nuclear export inhibitor aminoratjadone is a potent effector in extracellular-targeted drug conjugates” (Chemical Science, 2019).
Where two headings read alike, the source gives them in different places. No end group written: not given here.

Tests used:
PC-3 = system: PC-3; set-up: method as in Köster et al.10; conditions: PC-3 human prostate carcinoma; ref Köster et al.10; read-out: Antiproliferative activity IC50; cited from earlier work
K-562 = system: K-562; set-up: method as in Köster et al.10; conditions: K-562 human chronic myelogenous leukemia; ref Köster et al.10; read-out: Antiproliferative activity IC50; cited from earlier work
KB-V1 = system: KB-V1; set-up: method as in Köster et al.10; conditions: KB-V1 multi-drug-resistant human cervix carcinoma; ref Köster et al.10; read-out: Antiproliferative activity IC50; cited from earlier work
L-929 [1] = system: L-929; set-up: method as in Köster et al.10; conditions: L-929 murine fibroblast; ref Köster et al.10; read-out: Antiproliferative activity IC50; cited from earlier work
KB-3.1 [2] = system: KB-3.1; set-up: method as in Köster et al.10; conditions: KB-3.1 human cervix carcinoma; ref Köster et al.10; read-out: Antiproliferative activity IC50; cited from earlier work
CRM1 = CRM1 (Homo sapiens, UniProt O14980); test: Nuclear export inhibition, fluorescent translocation biosensor in recombinant HeLa cells; assay type: cell-based; set-up: This cellular assay uses HeLa cells that express a recombinant fusion protein; endogenous in cells; host or cells: HeLa cells stably expressing the NLS-GST-GFP-RevNES translocation biosensor (HeLaRevBio); conditions: 1 h incubation
Chain of CRM1 (O14980 whole entry, the tested form may be a part): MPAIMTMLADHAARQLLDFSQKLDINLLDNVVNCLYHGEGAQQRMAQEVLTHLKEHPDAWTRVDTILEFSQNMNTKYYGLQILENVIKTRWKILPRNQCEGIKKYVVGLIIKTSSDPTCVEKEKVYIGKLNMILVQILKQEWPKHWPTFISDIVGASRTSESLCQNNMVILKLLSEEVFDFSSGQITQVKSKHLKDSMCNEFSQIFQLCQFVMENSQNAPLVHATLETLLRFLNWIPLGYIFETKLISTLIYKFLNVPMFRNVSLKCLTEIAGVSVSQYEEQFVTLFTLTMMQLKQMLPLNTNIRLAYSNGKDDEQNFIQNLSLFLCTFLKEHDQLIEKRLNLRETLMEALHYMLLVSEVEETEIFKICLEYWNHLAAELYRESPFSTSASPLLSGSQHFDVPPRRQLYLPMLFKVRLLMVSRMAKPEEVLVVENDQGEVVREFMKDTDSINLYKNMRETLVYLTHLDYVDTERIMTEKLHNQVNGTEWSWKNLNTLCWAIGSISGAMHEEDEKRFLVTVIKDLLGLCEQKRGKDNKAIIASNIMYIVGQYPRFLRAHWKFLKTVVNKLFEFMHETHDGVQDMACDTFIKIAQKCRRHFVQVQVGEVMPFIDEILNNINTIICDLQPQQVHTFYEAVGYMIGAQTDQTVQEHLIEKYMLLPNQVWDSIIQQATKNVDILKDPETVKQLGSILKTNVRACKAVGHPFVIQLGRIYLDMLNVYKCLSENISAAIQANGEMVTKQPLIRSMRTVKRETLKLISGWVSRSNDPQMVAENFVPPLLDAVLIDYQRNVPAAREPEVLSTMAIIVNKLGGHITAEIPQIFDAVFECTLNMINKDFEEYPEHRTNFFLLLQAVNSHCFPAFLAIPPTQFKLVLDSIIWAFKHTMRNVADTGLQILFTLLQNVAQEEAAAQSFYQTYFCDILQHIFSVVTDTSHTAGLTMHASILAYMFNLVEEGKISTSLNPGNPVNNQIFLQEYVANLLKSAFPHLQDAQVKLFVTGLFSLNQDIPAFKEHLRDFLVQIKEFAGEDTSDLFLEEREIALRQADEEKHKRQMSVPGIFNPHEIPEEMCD

A-549 = test: cells; assay type: cell-based, human; conditions: Homo sapiens
Protocol: (§1) Biological evaluation of the compounds […]
(§2) serial dilutions of the test compound were given to 120 µL of suspended cells (50.000/mL) in wells of 96-well plates. After 5 days of incubation growth inhibition (IC50) was determined using an MTT assay.9
(§3) Table S1:Medium conditions for different cell types.
(§4) Cell type Medium Additives
(§5) L-929 (DSMZ ACC 2) DME medium (high glucose) (Gibco) 10% fetal calf serum (Gibco) SKOV-3 DSMZ ATCC HTB Mc Coys-Medium (Gibco) 10% fetal calf serum (Gibco) […]
(§6) A549 (DSMZ ACC 107) DME medium (high glucose) (Gibco) 10% fetal calf serum (Gibco)

MCF-7 = test: cells; assay type: cell-based, human; conditions: Homo sapiens
Protocol: as §1, §2, §3, §4, §5, §6

KB-3.1 [3] = test: cells; assay type: cell-based, human
Protocol: as §1, §2, §3, §4, §5, §6

SK-OV-3 = test: cells; assay type: cell-based, human; conditions: Homo sapiens
Protocol: as §1, §2, §3, §4, §5, §6

L-929 [4] = test: Cell proliferation assay (MTT, 5 days); assay type: cell-based, murine; conditions: Mus musculus
Protocol: as §1, §2, §3, §4, §5
A549 (DSMZ ACC 107) DME medium (high glucose) (Gibco) 10% fetal calf serum (Gibco) KB 3.1 (DSMZ ACC 158) DME medium (high glucose) (Gibco) 10% fetal calf serum (Gibco) Ratjadone Compound Antiproliferative activity IC50 [nM]
KB-3.1: human cervix carcinoma, KB-V1: multi-drug-resistant human cervix carcinoma, K-562: human chronic myelogenous leukemia cell, PC-3: human prostate carcinoma, L-929: murine fibroblast
Figure S8: Structures of Ratjadone A-D and their antiproliferative activity (IC50 values in nM). Data published by Köster et al.10

[5] = system: panel of cancer cell lines; test: Antiproliferative activity of drug-free LHRH carriers in a panel of cancer cell lines; assay type: cell-based, human; conditions: KB-3.1, A-549, SK-OV-3, MCF-7
From the text: Luteinizing hormone releasing hormone (LHRH)-based carriers were selected for this purpose, because it has been shown that several cancer cell types overexpress receptors for LHRH, a peptide-hormone involved in regulation of the sex glands of males and females.[25],[26],[29],[82]–[84] We synthesized three novel derivatives of LHRH that bear azido-ornithine as […] amino acid of the decapeptide core structure instead of the glycine residue found in the natural peptide (Fig. 8). As the importance of the newly introduced stereocenter was unclear, both diastereoisomers L-Orn-N3-LHRH and D-Orn-N3-LHRH were prepared. An additional analog, D-Orn-N3-Gose, was based on the synthetic LHRH analogue goserelin, that was reported to have higher affinity for the LHRH-receptor[85] due to a hydrazine carboxamide in the C-terminal position. […] Next, their antiproliferative activities were evaluated in a panel of cancer cell lines, in order to assess a contribution of the drug-free targeting moiety to bioactivity. […] The conjugates were evaluated for their antiproliferative activity against the LHRH-receptor-positive lung cancer cell line A-549 (Table 3). […]
serial dilutions of the test compound were given to 120 µL of suspended cells (50.000/mL) in wells of 96-well plates. After 5 days of incubation growth inhibition (IC50) was determined using an MTT assay.9 […]

[6] = set-up: method as in ref 86 = [86]; Hartmann D. A. Curr. Protoc. Pharmacol. 2002 19 7.6.1 7.6.8; conditions: cited from earlier work
[7] = Plasma stability assay (HPLC-MS/MS); assay type: in vitro ADME; conditions: 37 °C, pH 7.4, two hours, 250 µM
Protocol: We exposed three selected conjugates, FA-7-Val-Cit-PABA-16R-aminoratjadone, FA-SS-16R-aminoratjadone and FA-3b-16R-aminoratjadone, to human plasma and quantified their relative amount at different time points by HPLC-MS/MS analysis (Fig. 9).
FA-7-Val-Cit-pABA-16R-Aminoratjadone (PK008a), FA-SS-16R-Aminoratjadone (PK026a) and FA-3b-L-Aminoratjadone (PK058a) were dissolved in DMSO were added to human plasma (pH 7.4, 37°C) to yield a final concentration of 10 µg/ml. In addition, procaine, propoxycaine and procainamide (dissolved in DMSO) were added to human plasma (pH 7.4, 37°C) to yield a final concentration of 250 µM. Procaine and propoxycaine served as positive controls as they are known to be unstable in mouse plasma. Procainamide served as negative control as it is known to be stable in mouse plasma. The samples were incubated for 0 min, 30 min, 60 min, 90 min and 120 min at 37°C. At each time point 10 µl of the respective sample was extracted with 50 µl acetonitrile containing an internal standard for 15 min on ice. […] All samples were analyzed via HPLC-MS using an Agilent 1290 Inifinity II HPLC system coupled to an AB Sciex QTrap 6500plus mass spectrometer. […]
MRM. All compo unds were detected in positive scan mode. Peak areas of each compound and of the internal standard were analyzed using MultiQuant 3.0 software (AB Sciex). Peaks were quantified using […]

[8] = nuclear export inhibition IC50, HeLa cells expressing translocation biosensor
[9] = A549, read-out: Antiproliferative activity IC50, A-549 human lung carcinoma
[10] = MCF7, read-out: Antiproliferative activity IC50, MCF-7 human breast carcinoma
[11] = Homo sapiens, KB 3-1, read-out: Antiproliferative activity IC50, KB-3.1 human cervix carcinoma
[12] = SK-OV-3, read-out: Antiproliferative activity IC50
[13] = L929, read-out: Antiproliferative activity IC50, L-929 murine fibroblast

C/C=C/[C@@H]1O[C@H]([C@@H](O)/C=C/C=C/C[C@@H](C)/C=C(C)\C=C\[C@H]2CC=CC(=O)O2)C[C@@H](O)[C@@H]1C [Compound 2, Ratjadone B]
IC50 (PC-3): 0.15 nM
IC50 (K-562): 0.5 nM
IC50 (KB-V1): 0.15 nM
IC50 (L-929 [1]): 0.35 nM
IC50 (KB-3.1 [2]): 1 nM

CC=CC1OC(C(O)C=CC=C(C)CC(C)C=C(C)C=CC2CC=CC(=O)O2)CC(O)C1C (single isomer, unassigned; (+)) [Compound 1, (+)-ratjadone A, reference compound]
IC50 (CRM1; HeLa cells expressing translocation biosensor, read-out: nuclear export inhibition IC50): 1.2 nM
IC50 (PC-3): 0.08 nM
IC50 (K-562): 0.3 nM
IC50 (A-549; A549, A-549 human lung carcinoma, read-out: Antiproliferative activity IC50): 0.15 nM
IC50 (MCF-7; MCF7, MCF-7 human breast carcinoma, read-out: Antiproliferative activity IC50): 0.11 nM
IC50 (KB-3.1 [3]; KB 3-1, KB-3.1 human cervix carcinoma, read-out: Antiproliferative activity IC50): 0.46 nM
IC50 (SK-OV-3; SK-OV-3, SK-OV-3 human ovarian carcinoma, read-out: Antiproliferative activity IC50): 0.24 nM
IC50 (KB-V1): 0.15 nM
IC50 (L-929 [4]; L929, L-929 murine fibroblast, read-out: Antiproliferative activity IC50): 0.68 nM
IC50 (L-929 [1]): 0.15 nM
IC50 (KB-3.1 [2]): 0.3 nM

C/C=C/[C@@H]1O[C@H]([C@@H](O)/C=C/C=C/C[C@@H](C)/C=C(\C=C\[C@H]2CC=CC(=O)O2)CC)C[C@@H](O)[C@@H]1C [Compound 3, Ratjadone C]
IC50 (PC-3): 0.08 nM
IC50 (K-562): 0.15 nM
IC50 (KB-V1): 0.08 nM
IC50 (L-929 [1]): 0.2 nM
IC50 (KB-3.1 [2]): 0.35 nM

LHRH: luteinizing hormone releasing hormone, peptide hormone (QHWSYGLRPG-NH2; not fully specified (residue 1); ends and bridges not checked; UniProt P01148 24-33, looked up) [reference compound]
antiproliferative activity of the drug-free targeting moiety [5]: no antiproliferative activity

CCCOc1cc(N)ccc1C(=O)OCCN(CC)CC [propoxycain]
stability in plasma (known) [6]: degrade rapidly in plasma
degraded in human plasma [7]: more than 90%

C/C=C/[C@@H]1O[C@H](C/C=C/C=C/C[C@@H](C)/C=C(\C=C\[C@H]2CC=CC(=O)O2)CC)C[C@@H](O)[C@@H]1C [Compound 4, Ratjadone D]
IC50 (PC-3): 0.4 nM
IC50 (K-562): 0.5 nM
IC50 (KB-V1): 0.3 nM
IC50 (L-929 [1]): 1 nM
IC50 (KB-3.1 [2]): 2 nM

CC(C)C[C@H](NC(=O)[C@H](CCCN=[N+]=[N-])NC(=O)[C@H](Cc1ccc(O)cc1)NC(=O)[C@H](CO)NC(=O)[C@H](Cc1c[nH]c2ccccc12)NC(=O)[C@H](Cc1c[nH]cn1)NC(=O)[C@@H]1CCC(=O)N1)C(=O)N[C@@H](CCCNC(=N)N)C(=O)N1CCC[C@H]1C(=O)NCC(N)=O [L-Orn-N3-LHRH]
antiproliferative activity of the drug-free targeting moiety [5]: no antiproliferative activity

C/C=C/[C@@H]1O[C@H]([C@H](O)/C=C/C=C(\C)C[C@@H](C)/C=C(C)\C=C\[C@H]2CC=CC(=O)O2)CC(=O)[C@@H]1C [Compound 14, 19-oxoratjadone]
IC50 (CRM1; [8]): 13.3 nM
IC50 (A-549; [9]): 0.1 nM
IC50 (MCF-7; [10]): 0.48 nM
IC50 (KB-3.1 [3]; [11]): 0.36 nM
IC50 (SK-OV-3; [12]): 0.16 nM
IC50 (L-929 [4]; [13]): 1.15 nM

C#CCCOC(=O)N[C@H](/C=C/C=C(\C)C[C@@H](C)/C=C(C)\C=C\[C@H]1CC=CC(=O)O1)[C@@H]1C[C@@H](O)[C@H](C)[C@H](/C=C/C)O1 [Compound 21]
IC50 (CRM1; [8]): 46.1 nM
IC50 (A-549; [9]): 1.25 nM
IC50 (MCF-7; [10]): 0.27 nM
IC50 (KB-3.1 [3]; [11]): 0.47 nM
IC50 (SK-OV-3; [12]): 0.45 nM
IC50 (L-929 [4]; [13]): 4.5 nM

CCN(CC)CCOC(=O)c1ccc(N)cc1 [procain]
stability in plasma (known) [6]: degrade rapidly in plasma
degraded in human plasma [7]: more than 90%
